Assay results from patent publication US20090156639A1, “COMPOSITIONS AND METHODS OF TREATMENT USING L-TYPE CALCIUM CHANNEL BLOCKERS AND CHOL[…]” (priority 2003, published 2009).
Structures can show the parent of a compound that is named as a salt.

Tested on: young adult male Sprague-Dawley rats
Assay: Novel Object Recognition Memory test (hippocampus-dependent nonspatial memory task)
Format: in vivo, rat
Conditions: for % Exploration of the novel object: prior to training, test 24 hours after training, n=6; for approximate optimum dosage in the Novel Object Recognition Memory test: from dose response data (FIGS. 1, 2, 4)
Procedure: The general procedure for compound evaluation in Novel Object Recognition Memory (Hippocampus-Dependent Nonspatial Memory Task) is as follows: • 1. The animals are transported in their home cages from the vivarium to a dimly lit (5-6 lux) training room and acclimated for approximately 45 minutes. • 2. The animals are than individually placed in the training/testing environment (an opaque plastic chamber, 61 cm×42 cm×37 cm with bedding on the floor) for 5 minutes of habituation. Thereafter, the animals are returned to their home cage.
They remained in the testing room for approximately 15 minutes after the last animal is habituated before being returned to their colony room.
For the memory test, the objects to be discriminated are a goblet (11 cm in height, 6.5 cm in diameter) and a conical candlestick holder (11 cm in height, 6 cm in diameter) made of green, nontransparent glass. There are multiple copies of each object used for training and testing. Object pairs are randomly assigned within and between conditions. For training, two identical objects are placed 8 cm from the sides of the two short walls of the chamber. • 4. The day after initial habituation, the animals are returned to the testing room and acclimated as described in Step 1. Drug and/or vehicle is then administered according to experimental design (i.p.: 263/8-gauge needle; or p.o.: 18-gauge needle) at an interval ranging from 24 hours prior to 24 hours post-training. The training procedure is begun by placing the animal, nose facing the wall, into the empty chamber at a position in the center of a long wall. After 1 minute of re-habituation, the animal is removed from the chamber and placed in a holding cage (45 cm×26 cm×20 cm) with bedding for a period of 10 seconds. During this delay, the training objects are placed in the chamber. The animal is then returned to the chamber for a 15-minute period of exploration. The animal's movements are observed via cameral located over the chamber and are recorded on videotape. After the training session, the animal is returned to its home cage. The objects are cleaned with an 85% EtOH solution. The animals remain in the testing room for approximately 15 minutes after the last animal is trained before being returned to their colony room. • 5. Following a delay interval (1 hour to several weeks, but usually 24 hours), the animals are again returned to the testing room and acclimated as described in Step 1. After this, individual animals are re-habituated to the empty chamber for 1 minute as was described in Step 4. For the test, two new objects are placed in the chamber: one is identical to the objects used during training, while the other is novel. The position of the novel object is randomized for each animal. The animals are allowed to actively explore until they accumulate a total of 60 seconds of exploration. During the test period, the amount of time spent exploring either the novel or the familiar object is recorded using R. E. Clark's V.P.C. program, which also signals when 60 seconds of exploration has been accumulated. The animal's movements are observed via a camera located over the chamber and are recorded on videotape. Any animal that fails to explore either object or to reach the set criterion within 15 minutes is excluded from analysis. After the test, the animals are returned to their home cage, and then to the colony room. The objects are cleaned with an 85% EtOH solution. • 6.

SMILES	% Exploration of the novel object (donepezil 0.05 mg/kg i.p. alone (suboptimal dose) plus vehicle)	approximate optimum dosage in the Novel Object Recognition Memory test	% Exploration of the novel object (Compound A 1.00 mg/kg i.p. alone (suboptimal dose) plus vehicle)
COc1cc2c(cc1OC)C(=O)C(CC1CCN(Cc3ccccc3)CC1)C2 (racemic) [donepezil, (+/−) 2,3-dihydro-5,6-dimethoxy-2-[[1-(phenylmethyl)-4-piperidinyl]methyl]-IH-indene-1-one hydrochloride]	50%	~0.5 mg/kg	
COCCOC(=O)C1=C(C)NC(C)=C(C(=O)OC(C)C)C1c1cccc(C#N)c1Cl (single isomer, unassigned; (+)) [Compound A, (+) isopropyl 2-methoxyethyl 4-(2-chloro-3-cyano-phenyl)-1,4-dihydro-2,6-dimethylpyridine-3,5-dicarboxylate]		~10 mg/kg	50%
CC12CC3CC(C)(C1)CC(N)(C3)C2 [memantine]		~1.0 mg/kg	
